From PubChem BioAssay AID1845199 (Molecular Pharmacology Branch, DTP, NCI, 2023)

Tested on: 556581-035-R-J1 tumor spheroid viability, % test/control
Assay: Anticancer human tumor 556581-035-R-J1 patient-derived ovarian carcinoma cell line growth inhibition
Details: spheroids with HUVEC and MSC; for IC50: curve of first compound; for viability, T/C: stronger effect = lower value
Excerpt: Multicellular complex tumor spheroid response to DNA repair inhibitors in combination with DNA-damaging drugs
This study explores the anticancer activities of DNA-damaging drugs and inhibitors of DNA damage repair, both as single agents and in combinations. Complex tumor spheroids comprised of malignant cells, endothelial cells and mesenchymal stem cells served as an in vitro model for human solid tumors. This model system incorporates physiologically relevant features and patient-derived or established malignant cell lines with clinically relevant genetic alterations from many tumor types. Twenty-six patient-derived or established malignant cell lines were evaluated representing sarcoma, melanoma, small cell lung cancer (SCLC), non-small cell lung cancer (NSCLC), as well as bladder, ovarian and pancreatic cancers. The concentration ranges selected for each drug and investigational agent were based upon clinically achievable concentrations if the clinical Cmax of the agent was known.
Compounds. The drugs and compounds olaparib (NSC753686), talazoparib (NSC767125), berzosertib (NSC777718), elimusertib (NSC800525), nedisertib (NSC802822), VX-984 (NSC792969), AZD-1390 (NSC803789), temozolomide (NSC362856), topotecan (NSC609699), trabectedin (NSC813783), staurosporine (NSC755774), and gemcitabine (NSC613327) were obtained from the National Cancer Institute (NCI) Developmental Therapeutics Program Chemical Repository. The FDA-approved anticancer drug set is available from the Developmental Therapeutics Program at https://dtp.cancer.gov/organization/dscb/obtaining/available_plates.htm. […] The stock solutions were prepared in dimethyl sulfoxide (DMSO, Sigma-Aldrich, St. Louis, MO, cat. D2650) at 400-fold the tested concentration and stored at -70 degrees C. Prior to their use, the stock solutions were diluted in fresh medium and the final DMSO concentration in the assay was 0.25% (v/v). All drugs and investigational agents were tested over a range starting from a high concentration at or near the clinical Cmax and decreasing in half-log increments. If the clinical Cmax for an agent had not been determined, the highest concentration tested was 10 microM.
Cell Lines. The patient-derived cancer cell (PDC) lines: 156681-154-R-J1-PDC, 283228-195-R-J1-PDC, 287954-098-R-J1-PDC, 292921-168-R-J2-PDC, 349418-098-R-PDC, 425362-245-T-J1-PDC, 556581-035-R-J1-PDC, and BL0293-F563-PDC were received from the NCI Patient-Derived Models Repository (PDMR, https://pdmr.cancer.gov). The established cell lines HS-SY-2 (RRID:CVCL_8719), MPNST, and SYO-1 (RRID:CVCL_7146) were obtained from the Sloan Kettering Institute. The alveolar soft parts sarcoma cell line ASPS-1 (RRID:CVCL_S738) was established at the NCI and grown from internal seed stocks. The following established cell lines were purchased from the American Type Culture Collection (ATCC, Manassas, VA): G-401 (ATCC, cat. CRL-1441, RRID:CVCL_0270), SW982 (ATCC, cat. HTB-93, RRID:CVCL_1734), VA-ES-BJ (ATCC, cat. CRL-2138, RRID:CVCL_1785), NCI-H719 (ATCC, cat. CRL-5837, RRID:CVCL_1582), NCI-H196 (ATCC, cat. CRL-5823, RRID:CVCL_1509), NCI-H841 (ATCC, cat. CRL-5845, RRID:CVCL_1595), NCI-H1618 (ATCC, cat. CRL-5879, RRID:CVCL_1480), NCI-H1876 (ATCC, cat. CRL-5902, RRID:CVCL_1503), DMS 114 (ATCC, cat. CRL-2066; RRID:CVCL_1174), NCI-H211 (ATCC, cat. CRL-5824; RRID:CVCL_1529), and SW 1271 (ATCC, cat. CRL-2177, RRID:CVCL_1716). The small cell lung cancer cell line COR-L88 was purchased from Sigma-Aldrich (cat. 92031917-1VL, RRID:CVCL_1141). The non-small cell lung cancer cell lines NCI-H226 (RRID:CVCL_1544) and NCI-H322M (RRID:CVCL_1557) were established at the NCI and grown from internal seed stocks. Pooled donor human umbilical vein endothelial cells (HUVEC, Lonza, cat. CC-2519) and human mesenchymal stem cells (hMSC, Lonza, cat. PT-2501) were purchased from Lonza (Walkersville, MD).
Cell Culture. All cells were maintained in an incubator at 37 degrees C and 5% CO2 with 95% humidity. […]
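Note: spheroids exposed to compounds for 7 days before viability read.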

Structure (SMILES): Cc1cc(C)c(CNC(=O)c2cc(-c3ccc(CN4CCOCC4)cc3)cc3c2cnn3C2CCCC2)c(=O)[nH]1 + CC[C@@]1(O)C(=O)OCc2c1cc1n(c2=O)Cc2cc3c(CN(C)C)c(O)ccc3nc2-1
- IC50 (second compound 0.003 µM): > 10 µM
- IC50 (second compound 0.00949 µM): > 10 µM
- IC50 (second compound 0.03 µM): > 10 µM
- IC50 (second compound 0.0949 µM): 4.51 µM
- IC50 (second compound 0.3 µM): < 0.0316 µM
- viability, T/C (second compound 0.003 µM, first compound 0.0316 µM): 97%
- viability, T/C (second compound 0.003 µM, first compound 0.1 µM): 85.4%
- viability, T/C (second compound 0.003 µM, first compound 0.316 µM): 89%
- viability, T/C (second compound 0.003 µM, first compound 1 µM): 84%
- viability, T/C (second compound 0.003 µM, first compound 3.16 µM): 99.7%
- viability, T/C (second compound 0.003 µM, first compound 10 µM): 87.4%
- viability, T/C (second compound 0.00949 µM, first compound 0.0316 µM): 95.9%
- viability, T/C (second compound 0.00949 µM, first compound 0.1 µM): 87.7%
- viability, T/C (second compound 0.00949 µM, first compound 0.316 µM): 78.8%
- viability, T/C (second compound 0.00949 µM, first compound 1 µM): 72.5%
- viability, T/C (second compound 0.00949 µM, first compound 3.16 µM): 87.4%
- viability, T/C (second compound 0.00949 µM, first compound 10 µM): 83.8%
- viability, T/C (second compound 0.03 µM, first compound 0.0316 µM): 74.2%
- viability, T/C (second compound 0.03 µM, first compound 0.1 µM): 72.9%
- viability, T/C (second compound 0.03 µM, first compound 0.316 µM): 70.3%
- viability, T/C (second compound 0.03 µM, first compound 1 µM): 67.1%
- viability, T/C (second compound 0.03 µM, first compound 3.16 µM): 66.8%
- viability, T/C (second compound 0.03 µM, first compound 10 µM): 70.4%
- viability, T/C (second compound 0.0949 µM, first compound 0.0316 µM): 60.1%
- viability, T/C (second compound 0.0949 µM, first compound 0.1 µM): 56.6%
- viability, T/C (second compound 0.0949 µM, first compound 0.316 µM): 57.1%
- viability, T/C (second compound 0.0949 µM, first compound 1 µM): 56.3%
- viability, T/C (second compound 0.0949 µM, first compound 3.16 µM): 53.5%
- viability, T/C (second compound 0.0949 µM, first compound 10 µM): 43.1%
- viability, T/C (second compound 0.3 µM, first compound 0.0316 µM): 19.3%
- viability, T/C (second compound 0.3 µM, first compound 0.1 µM): 22.9%
- viability, T/C (second compound 0.3 µM, first compound 0.316 µM): 19.6%
- viability, T/C (second compound 0.3 µM, first compound 1 µM): 19.2%
- viability, T/C (second compound 0.3 µM, first compound 3.16 µM): 15.6%
- viability, T/C (second compound 0.3 µM, first compound 10 µM): 11.3%

Structure (SMILES): Cc1sc2c(c1C)C(c1ccc(Cl)cc1)=NC(CC(=O)Nc1ccc(O)cc1)c1nnc(C)n1-2 (stereo not given) + CC[C@@]1(O)C(=O)OCc2c1cc1n(c2=O)Cc2cc3c(CN(C)C)c(O)ccc3nc2-1
- IC50 (second compound 0.003 µM): > 3 µM
- IC50 (second compound 0.00949 µM): > 3 µM
- IC50 (second compound 0.03 µM): > 3 µM
- IC50 (second compound 0.0949 µM): 0.281 µM
- IC50 (second compound 0.3 µM): < 0.00949 µM
- viability, T/C (second compound 0.003 µM, first compound 0.00949 µM): 103%
- viability, T/C (second compound 0.003 µM, first compound 0.03 µM): 85.4%
- viability, T/C (second compound 0.003 µM, first compound 0.0949 µM): 83.8%
- viability, T/C (second compound 0.003 µM, first compound 0.3 µM): 74.8%
- viability, T/C (second compound 0.003 µM, first compound 0.949 µM): 77.5%
- viability, T/C (second compound 0.003 µM, first compound 3 µM): 74.2%
- viability, T/C (second compound 0.00949 µM, first compound 0.00949 µM): 99.4%
- viability, T/C (second compound 0.00949 µM, first compound 0.03 µM): 84.3%
- viability, T/C (second compound 0.00949 µM, first compound 0.0949 µM): 74%
- viability, T/C (second compound 0.00949 µM, first compound 0.3 µM): 68.8%
- viability, T/C (second compound 0.00949 µM, first compound 0.949 µM): 71.4%
- viability, T/C (second compound 0.00949 µM, first compound 3 µM): 64.2%
- viability, T/C (second compound 0.03 µM, first compound 0.00949 µM): 74.3%
- viability, T/C (second compound 0.03 µM, first compound 0.03 µM): 76.5%
- viability, T/C (second compound 0.03 µM, first compound 0.0949 µM): 68.8%
- viability, T/C (second compound 0.03 µM, first compound 0.3 µM): 66.7%
- viability, T/C (second compound 0.03 µM, first compound 0.949 µM): 65.6%
- viability, T/C (second compound 0.03 µM, first compound 3 µM): 54.7%
- viability, T/C (second compound 0.0949 µM, first compound 0.00949 µM): 59.3%
- viability, T/C (second compound 0.0949 µM, first compound 0.03 µM): 58.4%
- viability, T/C (second compound 0.0949 µM, first compound 0.0949 µM): 56.2%
- viability, T/C (second compound 0.0949 µM, first compound 0.3 µM): 50.7%
- viability, T/C (second compound 0.0949 µM, first compound 0.949 µM): 39.6%
- viability, T/C (second compound 0.0949 µM, first compound 3 µM): 41.4%
- viability, T/C (second compound 0.3 µM, first compound 0.00949 µM): 16.4%
- viability, T/C (second compound 0.3 µM, first compound 0.03 µM): 16.9%
- viability, T/C (second compound 0.3 µM, first compound 0.0949 µM): 12.9%
- viability, T/C (second compound 0.3 µM, first compound 0.3 µM): 17.1%
- viability, T/C (second compound 0.3 µM, first compound 0.949 µM): 18.6%
- viability, T/C (second compound 0.3 µM, first compound 3 µM): 11.3%
